Measurements as given in ChEMBL document CHEMBL1806385, “Discovery of potent, soluble and orally active TRPV1 antagonists. Structure-activity relationships of a series of isoxazoles” (Bioorg Med Chem Lett, 2011).
pIC50: −log10 of the molar value. Values after ≈ are worked out from the molar mass of the structure shown.

Experiments:
[1] = Intrinsic clearance in rat liver microsomes; assay type: ADME, Microsome
[2] = physchem; conditions: phosphate buffered saline, pH 7.4
Description: Intrinsic solubility of the compound in phosphate buffered saline at pH 7.4 by shake-flask method

[3] = Plasma protein binding in Wistar rat; assay type: ADME, cell-free; conditions: read-out: PPB (converted)
[4] = Intrinsic clearance in human liver microsomes; assay type: ADME, Microsome
[5] = molecular target: Transient receptor potential cation channel subfamily V member 1 (Homo sapiens, UniProt Q8NER1)
Description: Antagonist activity at human TRPV1 expressed in CHO cells assessed as inhibition of calcium flux by FLIPR assay

[6] = Plasma protein binding in human; assay type: ADME, cell-free; conditions: read-out: PPB (converted)
[7] = Intrinsic clearance in rat hepatocytes assessed per 10^6 cells; assay type: ADME, cell-based, Liver, Hepatocyte
[8] = tested on: Rattus norvegicus; test: Antihyperalgesic activity in po dosed rat capsaicin hargreaves model assessed as reversal of capsaicin-induced thermal hyperalgesia measured by paw withdrawal latency administered 2 hrs before capsaicin challenge; assay type: functional
[9] = Intrinsic clearance in human hepatocytes assessed per 10^6 cells; assay type: ADME, cell-based, Liver, Hepatocyte
[10] = AUClast in po dosed rat; assay type: ADME, organism-based; design: route oral, time 0 - last; conditions: plasma

Sequence of Transient receptor potential cation channel subfamily V member 1 (Q8NER1 whole entry): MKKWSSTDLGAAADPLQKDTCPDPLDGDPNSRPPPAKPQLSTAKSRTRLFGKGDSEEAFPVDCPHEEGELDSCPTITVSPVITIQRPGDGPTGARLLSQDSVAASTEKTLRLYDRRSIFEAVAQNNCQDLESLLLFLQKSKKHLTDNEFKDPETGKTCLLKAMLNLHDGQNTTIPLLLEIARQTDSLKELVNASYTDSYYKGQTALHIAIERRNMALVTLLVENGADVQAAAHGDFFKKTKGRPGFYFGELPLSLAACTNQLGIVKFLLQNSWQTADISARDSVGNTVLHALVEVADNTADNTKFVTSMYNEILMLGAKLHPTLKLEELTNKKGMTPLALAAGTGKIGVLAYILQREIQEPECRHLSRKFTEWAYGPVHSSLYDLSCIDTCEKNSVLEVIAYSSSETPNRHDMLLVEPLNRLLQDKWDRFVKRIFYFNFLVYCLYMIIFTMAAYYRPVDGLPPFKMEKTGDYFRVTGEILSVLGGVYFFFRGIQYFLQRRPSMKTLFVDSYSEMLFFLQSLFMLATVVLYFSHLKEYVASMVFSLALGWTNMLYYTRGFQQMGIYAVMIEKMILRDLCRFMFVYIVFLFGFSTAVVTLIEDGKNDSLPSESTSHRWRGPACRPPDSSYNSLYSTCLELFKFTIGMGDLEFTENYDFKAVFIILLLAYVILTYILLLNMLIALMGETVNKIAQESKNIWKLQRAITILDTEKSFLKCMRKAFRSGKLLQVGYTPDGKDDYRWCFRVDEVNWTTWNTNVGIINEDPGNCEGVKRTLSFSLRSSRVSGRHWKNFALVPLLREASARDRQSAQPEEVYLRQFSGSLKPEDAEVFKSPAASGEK

Row | SMILES | solubility thermodynamic [2] [µg/mL] | pIC50 [5] | other results
1 | O=C(N[C@@H]1CCC[C@H](O)C1)c1noc(-c2ccc(C(F)(F)F)cc2)c1Cl | < 1 | 9.30 | microsomal CLint [1]: < 12 µL/min/mg; fraction unbound [3]: 0.007; microsomal CLint [4]: < 12 µL/min/mg; fraction unbound [6]: 0.01
2 | O=C(N[C@@H]1CCC[C@H](O)C1)c1noc(-c2ccc(F)cc2)c1Cl | 38 (≈ 112 µM) | 7.30 | –
3 | CC(C)NCc1c(C(=O)N[C@@H]2CCC[C@H](O)C2)noc1-c1ccc(C(F)(F)F)cc1 | – | – | hepatocyte CLint [7]: < 6 µL/min/1e6 cells; MED [8]: 30 µmol/kg; hepatocyte CLint [9]: < 6 µL/min/1e6 cells; AUC(0-t) [10]: 2730 ng·h/mL
4 | O=C(N[C@@H]1CCC[C@H](O)C1)c1noc(-c2ccc(C(F)(F)F)c(F)c2)c1Cl | < 1 | 9.20 | –
5 | O=C(N[C@@H]1CCC[C@H](O)C1)c1noc(-c2ccc(Cl)cc2)c1Cl | 3 (≈ 8.45 µM) | 8.30 | –
6 | O=C(N[C@@H]1CCC[C@H](O)C1)c1noc(-c2ccc(Cl)c(F)c2)c1Cl | 2 (≈ 5.36 µM) | 9.20 | –
7 | Cc1c(C(=O)N[C@@H]2CCC[C@H](O)C2)noc1-c1ccc(C(F)(F)F)c(F)c1 | 4 (≈ 10.4 µM) | 8.70 | –
8 | CCOc1cc(Cl)ccc1-c1onc(C(=O)N[C@@H]2CCC[C@H](O)C2)c1C | 27 (≈ 71.3 µM) | 7.90 | –
9 | CCOc1cc(Cl)ccc1-c1onc(C(=O)NC2CCC(O)CC2)c1C (stereo not drawn) | 28 (≈ 73.9 µM) | 6.70 | –
10 | CCOc1cc(Cl)ccc1-c1onc(C(=O)NC2CCOCC2)c1C | < 1 | 7.90 | –
11 | O=C(N[C@@H]1CCC[C@H](O)C1)c1onc(-c2ccc(Cl)c(F)c2)c1Cl | 11 (≈ 29.5 µM) | 8.50 | –
12 | O=C(N[C@@H]1CCC[C@H](O)C1)c1onc(-c2ccc(F)cc2)c1Cl | 47 (≈ 139 µM) | 6.10 | –
13 | O=C(N[C@@H]1CCC[C@H](O)C1)c1noc(-c2ccc(C(F)(F)F)cc2)c1CO | 73 (≈ 190 µM) | 7.10 | microsomal CLint [1]: 27 µL/min/mg; fraction unbound [3]: 0.091; microsomal CLint [4]: < 12 µL/min/mg; fraction unbound [6]: 0.081
14 | O=C(NC1CCC(O)CC1)c1noc(-c2ccc(C(F)(F)F)cc2)c1CO (stereo not drawn) | 70 (≈ 182 µM) | 5.80 | –
15 | CC[C@H](CO)NC(=O)c1noc(-c2ccc(C(F)(F)F)cc2)c1CO | 66 (≈ 184 µM) | 5.80 | –
16 | O=C(NC1CCOCC1)c1noc(-c2ccc(C(F)(F)F)cc2)c1CO | 35 (≈ 94.5 µM) | 5.50 | –
17 | CC(C)[C@H](C)NC(=O)c1noc(-c2ccc(C(F)(F)F)cc2)c1CO | 1.5 (≈ 4.21 µM) | 6.90 | –
18 | O=C(NC1CCCC1)c1noc(-c2ccc(C(F)(F)F)cc2)c1CO | 1 (≈ 2.82 µM) | 6.80 | –
19 | CC(O)c1c(C(=O)NC2CCCC2)noc1-c1ccc(C(F)(F)F)cc1 (stereo not drawn) | < 1 | 6.00 | –
20 | CC(C)(O)c1c(C(=O)NC2CCCC2)noc1-c1ccc(C(F)(F)F)cc1 | < 1 | 5.30 | –
21 | CC(C)[C@H](C)NC(=O)c1noc(-c2ccc(C(F)(F)F)c(F)c2)c1CO | 1.4 (≈ 3.74 µM) | 7.70 | –
22 | O=C(NC1CCCC1)c1noc(-c2ccc(C(F)(F)F)c(F)c2)c1CO | 73 (≈ 196 µM) | 7.40 | –
23 | CC[C@H](CO)NC(=O)c1noc(-c2ccc(C(F)(F)F)c(F)c2)c1CO | 31 (≈ 82.4 µM) | 6.80 | –
24 | CCNC(=O)c1c(C(=O)NC2CCCC2)noc1-c1ccc(C(F)(F)F)cc1 | 1.6 (≈ 4.05 µM) | 5.30 | –
25 | CN(C)C(=O)c1c(C(=O)NC2CCCC2)noc1-c1ccc(C(F)(F)F)cc1 | < 1 | 5.70 | –
26 | O=C(NC1CCCC1)c1noc(-c2ccc(C(F)(F)F)cc2)c1C(=O)O | 72 (≈ 195 µM) | 5.80 | –
27 | CC(C)NCc1c(C(=O)N[C@@H](C)C(C)C)noc1-c1ccc(C(F)(F)F)cc1 | 4 (≈ 10.1 µM) | 7.20 | –
28 | CC(C)NCc1c(C(=O)NC2CCCC2)noc1-c1ccc(C(F)(F)F)cc1 | 13 (≈ 32.9 µM) | 6.50 | –
29 | CC(C)NCc1c(C(=O)N[C@H](C)C(C)C)noc1-c1ccc(C(F)(F)F)cc1 | 12 (≈ 30.2 µM) | 6.10 | –
